In US20230233569A1 (Revolution Medicines, Inc., priority 2020, published 2023):
Where two headings read alike, the source gives them in different places.

Key:
KRAS WT = KRAS WT (Homo sapiens, UniProt P01116+P62937); assay: Disruption of BRAF RBD interaction with Ras (FRET / MOA assay, with Cyclophilin A); assay type: biochemical
Procedure, shortened: (§1)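 Compound-driven ternary complex formation between nucleotide-loaded K-Ras and Cyclophilin A was measured as loss of BRAF RBD binding. Compounds (10-point 3-fold series, top 30 μM final) were incubated 3 h at 25 °C, then anti-His Eu-W1024 (10 nM) and anti-GST allophycocyanin (50 nM) added for 1.5 h. IC50 was taken from the TR-FRET ratio decrease versus DMSO.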

KRAS G13C = KRAS G13C (Homo sapiens, UniProt P01116+P62937, G13C); assay: as above; assay type: biochemical
Chain of KRAS G13C (P01116 1-169 isoform P01116-2 G13C): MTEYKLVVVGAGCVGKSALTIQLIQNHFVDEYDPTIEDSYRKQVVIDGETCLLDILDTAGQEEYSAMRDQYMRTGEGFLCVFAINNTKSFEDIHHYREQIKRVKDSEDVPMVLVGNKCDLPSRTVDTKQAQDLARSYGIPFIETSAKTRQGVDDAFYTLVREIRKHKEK
Chain of KRAS G13C (P62937 whole entry): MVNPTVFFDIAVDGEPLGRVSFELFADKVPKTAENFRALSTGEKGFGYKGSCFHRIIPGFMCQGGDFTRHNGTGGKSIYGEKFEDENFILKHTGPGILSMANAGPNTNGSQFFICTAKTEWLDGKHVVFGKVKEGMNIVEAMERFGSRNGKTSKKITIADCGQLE
Procedure, shortened: as §1

NRAS G12C = NRAS G12C (Homo sapiens, UniProt P01111+P62937, G12C); assay: as above; assay type: biochemical
Chain of NRAS G12C (P01111 whole entry G12C): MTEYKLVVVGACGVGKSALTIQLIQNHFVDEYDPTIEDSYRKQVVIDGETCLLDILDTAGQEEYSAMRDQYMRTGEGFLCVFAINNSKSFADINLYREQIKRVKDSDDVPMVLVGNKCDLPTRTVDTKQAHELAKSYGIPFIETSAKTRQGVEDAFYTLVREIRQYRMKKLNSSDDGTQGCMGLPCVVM
Chain of NRAS G12C (P62937 whole entry): as the sequence (P62937 whole entry) above

KRAS G12D = KRAS G12D (Homo sapiens, UniProt P01116+P62937, G12D); assay: as above; assay type: biochemical
Chain of KRAS G12D (P01116 1-169 isoform P01116-2 G12D limits assumed): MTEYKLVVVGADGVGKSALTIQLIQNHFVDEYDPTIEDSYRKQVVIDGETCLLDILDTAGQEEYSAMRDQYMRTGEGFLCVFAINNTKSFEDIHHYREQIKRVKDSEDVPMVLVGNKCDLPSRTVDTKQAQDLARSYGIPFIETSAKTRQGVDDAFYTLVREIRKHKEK
Chain of KRAS G12D (P62937 whole entry): as the sequence (P62937 whole entry) above
Procedure, shortened: as §1

KRAS G12C = KRAS G12C (Homo sapiens, UniProt P01116+P62937, G12C); assay: as above; assay type: biochemical
Chain of KRAS G12C (P01116 1-169 isoform P01116-2 G12C): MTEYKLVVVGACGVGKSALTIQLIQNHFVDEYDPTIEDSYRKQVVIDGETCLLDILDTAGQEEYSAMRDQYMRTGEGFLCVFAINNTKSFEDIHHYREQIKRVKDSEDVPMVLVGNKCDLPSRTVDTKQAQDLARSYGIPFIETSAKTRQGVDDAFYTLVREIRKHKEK
Chain of KRAS G12C (P62937 whole entry): as the sequence (P62937 whole entry) above
Procedure, shortened: as §1

KRAS G13D = KRAS G13D (Homo sapiens, UniProt P01116+P62937, G13D); assay: as above; assay type: biochemical
Chain of KRAS G13D (P01116 1-169 isoform P01116-2 G13D limits assumed): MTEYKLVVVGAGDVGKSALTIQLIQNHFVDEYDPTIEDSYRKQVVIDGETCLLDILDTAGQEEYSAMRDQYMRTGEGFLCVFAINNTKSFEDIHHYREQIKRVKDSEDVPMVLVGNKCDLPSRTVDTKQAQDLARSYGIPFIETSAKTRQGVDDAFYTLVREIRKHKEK
Chain of KRAS G13D (P62937 whole entry): as the sequence (P62937 whole entry) above
Procedure, shortened: as §1

KRAS G12V = KRAS G12V (Homo sapiens, UniProt P01116+P62937, G12V); assay: as above; assay type: biochemical
Chain of KRAS G12V (P01116 1-169 isoform P01116-2 G12V limits assumed): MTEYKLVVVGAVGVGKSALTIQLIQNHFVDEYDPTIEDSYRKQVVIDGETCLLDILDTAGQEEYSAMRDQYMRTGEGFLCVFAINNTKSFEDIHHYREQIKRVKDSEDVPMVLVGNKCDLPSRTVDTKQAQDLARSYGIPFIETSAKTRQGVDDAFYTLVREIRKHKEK
Chain of KRAS G12V (P62937 whole entry): as the sequence (P62937 whole entry) above
Procedure, shortened: as §1

KRAS G12S = KRAS G12S (Homo sapiens, UniProt P01116+P62937, G12S); assay: as above; assay type: biochemical
Chain of KRAS G12S (P01116 1-169 isoform P01116-2 G12S limits assumed): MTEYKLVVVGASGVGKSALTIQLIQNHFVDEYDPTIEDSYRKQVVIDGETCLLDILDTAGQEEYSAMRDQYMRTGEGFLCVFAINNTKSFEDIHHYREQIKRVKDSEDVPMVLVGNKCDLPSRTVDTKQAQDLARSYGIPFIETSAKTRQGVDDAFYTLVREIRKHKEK
Chain of KRAS G12S (P62937 whole entry): as the sequence (P62937 whole entry) above
Procedure, shortened: as §1

[1] = system: K-Ras G12C (NCI-H358 cells); assay: Potency assay: pERK (AlphaLISA SureFire or In-Cell Western); assay type: cell-based; settings: Homo sapiens
Experimental: (§2) The purpose of this assay is to measure the ability of test compounds to inhibit K-Ras in cells. […] This procedure measures a decrease in cellular pERK in response to test compounds.
(§3) NCI-H358 cells were grown and maintained using media and procedures recommended by the ATCC. On the day prior to compound addition, cells were plated in 384-well cell culture plates (40 μl/well) and grown overnight in a 37° C., 5% CO2 incubator. Test compounds were prepared in 10, 3-fold dilutions in DMSO, with a high concentration of 10 mM. On the day of assay, 40 nL of test compound was added to each well of cell culture plate using an Echo550 liquid handler (LabCyte®). Concentrations of test compound were tested in duplicate. After compound addition, cells were incubated 4 hours at 37° C., 5% CO2. Following incubation, culture medium was removed and cells were washed once with phosphate buffered saline.
(§4) In some experiments, cellular pERK level was determined using the AlphaLISA SureFire Ultra p-ERK1/2 Assay Kit (PerkinElmer). Cells were lysed in 25 μL lysis buffer, with shaking at 600 RPM at room temperature. […] After a 2-hour incubation in the dark, 5 μL donor mix was added, plate was sealed, and incubated 2 hours at room temperature. Signal was read on an Envision plate reader (PerkinElmer) using standard AlphaLISA settings. Analysis of raw data was carried out in Excel (Microsoft) and Prism (GraphPad). Signal was plotted vs. the decadal logarithm of compound concentration, and IC50 was determined by fitting a 4-parameter sigmoidal concentration response model.
In other experiments, cellular pERK was determined by In-Cell Western. […] Fixed cells were washed 4 times for 5 minutes with TBS containing 0.1% Triton X-100 (TBST) and then blocked with 100 μL Odyssey blocking buffer (LI-COR) for 60 minutes at room temperature. […] Cells were washed 4 times for 5 minutes with TBST. Secondary antibody (IR-800CW rabbit, LI-COR, diluted 1:800) and DNA stain DRAQ5 (LI-COR, diluted 1:2000) were added and incubated 1-2 hours at room temperature. Cells were washed 4 times for 5 minutes with TBST. Plates were scanned on a LI-COR Odyssey CLx Imager. Analysis of raw data was carried out in Excel (Microsoft) and Prism (GraphPad). Signal was plotted vs. the decadal logarithm of compound concentration, and IC50 was determined by fitting a 4-parameter sigmoidal concentration response model.
as §2
as §3, with “mM. On day of” for “mM. On the day of”, “assay, 40 nl of test” for “assay, 40 nL of test”
as §4, with “μl” for “μL”, “sealed” for “sealed,”

NCI-H358 (K-Ras G12C) = assay: CellTiter-Glo cell viability assay, 5-day treatment; assay type: cell-based; settings: Homo sapiens, NCI-H358, H358, K-Ras G12C; read-out: Additional H358 Cell Viability assay data (K-Ras G12C, IC50)
Procedure, shortened: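 Five-day compound treatment of plated cells; luminescent read after ~30 min at RT. Percent-of-DMSO data fit to a four-parameter logistic model.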

NRAS Q61R = NRAS Q61R (Homo sapiens, UniProt P01111+P62937, Q61R); assay: Disruption of BRAF RBD interaction with Ras (FRET / MOA assay, with Cyclophilin A); assay type: biochemical; settings: NRAS Q61R; read-out: NRAS Q61R FRET data IC50
Chain of NRAS Q61R (P01111 whole entry Q61R): as the sequence (P01111 whole entry G12C) above, with C12G, Q61R counted along it
Chain of NRAS Q61R (P62937 whole entry): as the sequence (P62937 whole entry) above
Procedure, shortened: (§5)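 IC50 reflects compound-driven Ras:Cyclophilin A ternary complex displacing BRAF RBD, read as lowered TR-FRET ratio relative to DMSO after Eu anti-His (10 nM) and APC anti-GST (50 nM) detection for 1.5 h. Prior incubation 3 h, 25° C, with 12.5 nM GMPPNP-loaded Ras, 50 nM BRAF RBD, 25 μM Cyclophilin A; top compound 30 μM.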

NRAS Q61K = NRAS Q61K (Homo sapiens, UniProt P01111+P62937, Q61K); assay: as above; assay type: biochemical; settings: NRAS Q61K; read-out: NRAS Q61K FRET data IC50
Chain of NRAS Q61K (P01111 whole entry Q61K): as the sequence (P01111 whole entry G12C) above, with C12G, Q61K counted along it
Chain of NRAS Q61K (P62937 whole entry): as the sequence (P62937 whole entry) above
Procedure, shortened: as §5

[2] = KRAS WT, read-out: KRAS WT FRET data IC50
[3] = KRAS G13C, read-out: KRAS G13C FRET data IC50
[4] = NRAS G12C, read-out: NRAS G12C FRET data IC50
[5] = read-out: KRAS G12D FRET data, IC50
[6] = KRAS G12C, read-out: KRAS G12C FRET data IC50
[7] = KRAS G13D, read-out: KRAS G13D FRET data IC50
[8] = KRAS G12V, read-out: KRAS G12V FRET data IC50
[9] = read-out: KRAS G12S FRET data, IC50
[10] = NCI-H358, H358 KRAS G12C, read-out: pERK EC50

Chain of KRAS WT (P01116 1-169 isoform P01116-2 limits assumed): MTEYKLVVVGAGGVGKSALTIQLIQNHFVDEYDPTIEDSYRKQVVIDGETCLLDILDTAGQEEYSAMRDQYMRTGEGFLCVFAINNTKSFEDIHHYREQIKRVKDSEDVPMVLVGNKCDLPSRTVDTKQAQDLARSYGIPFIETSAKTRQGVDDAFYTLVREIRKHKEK
Chain of KRAS WT (P62937 whole entry): as the sequence (P62937 whole entry) above

Compound | IC50 (KRAS WT; [2]) | IC50 (KRAS G13C; [3]) | IC50 (NRAS G12C; [4]) | IC50 (KRAS G12D; [5]) | IC50 (KRAS G12C; [6]) | IC50 (KRAS G13D; [7]) | IC50 (KRAS G12V; [8]) | IC50 (KRAS G12S; [9]) | EC50 [1, 10] | IC50 (NCI-H358 (K-Ras G12C)) | also measured
CCn1c(-c2cccnc2[C@H](C)OC)c2c3cc(ccc31)-c1csc(n1)C[C@H](NC(=O)[C@H](C(C)C)N(C)C(=O)[C@H]1CCN(C(=O)/C=C/CN(C)C)C1)C(=O)N1CCC[C@H](N1)C(=O)OCC(C)(C)C2 [Example A282] | 1000 to 10000 nM | 1000 to 10000 nM | 100 to 1000 nM | 1000 to 10000 nM | 100 to 1000 nM | 1000 to 10000 nM | 1000 to 10000 nM | 1000 to 10000 nM | < 5000 nM | 10 to 100 nM | –
C=CC(=O)N1CC[C@H](C(=O)N(C)[C@H](C(=O)N[C@H]2Cc3cccc(c3)-c3ccc4c(c3)c(c(-c3cccnc3[C@H](C)OC)n4CC)CC(C)(C)COC(=O)[C@@H]3CCCN(O3)C2=O)C(C)C)C1 [Example A284] | – | – | – | – | – | – | – | – | – | 100 to 1000 nM | IC50 (KRAS WT; KRAS WT FRET data IC50, KRAS WT): > 10000 nM; IC50 (KRAS G13C; KRAS G13C FRET data IC50, KRAS G13C): 1000 to 10000 nM; IC50 (NRAS G12C; NRAS G12C FRET data IC50, NRAS G12C): 1000 to 10000 nM; IC50 (KRAS G12D; KRAS G12D FRET data, IC50): > 10000 nM; IC50 (KRAS G12C; KRAS G12C FRET data IC50, KRAS G12C): 100 to 1000 nM; IC50 (KRAS G13D; KRAS G13D FRET data IC50, KRAS G13D): > 10000 nM; IC50 (KRAS G12V; KRAS G12V FRET data IC50, KRAS G12V): > 10000 nM; IC50 (KRAS G12S; KRAS G12S FRET data, IC50): > 10000 nM; EC50 ([1]; NCI-H358, read-out: pERK EC50): < 5000 nM
CC#C[S+]([O-])N1CC[C@H](C(=O)N(C)[C@H](C(=O)N[C@H]2Cc3cccc(c3)-c3ccc4c(c3)c(c(-c3cccnc3[C@H](C)OC)n4CC)CC(C)(C)COC(=O)[C@@H]3CCCN(N3)C2=O)C2CCCC2)C1 (stereo partly shown) [Example A310] | 1000 to 10000 nM | 1000 to 10000 nM | 100 to 1000 nM | > 10000 nM | 100 to 1000 nM | > 10000 nM | 1000 to 10000 nM | 1000 to 10000 nM | < 5000 nM | 10 to 100 nM | –
C=CC(=O)N(C)CCN(C)C(=O)N(C)[C@H](C(=O)N[C@H]1Cc2nc(cs2)-c2ccc3c(c2)c(c(-c2cccnc2[C@H](C)OCC)n3CC)CC(C)(C)COC(=O)[C@@H]2CCCN(N2)C1=O)C(C)C [Example A437] | 100 to 1000 nM | 100 to 1000 nM | 10 to 100 nM | 1000 to 10000 nM | 10 to 100 nM | 1000 to 10000 nM | 100 to 1000 nM | 100 to 1000 nM | < 5000 nM | 10 to 100 nM | –
CCn1c(-c2cccnc2[C@H](C)OC)c2c3cc(ccc31)-c1cccc(c1)C[C@H](NC(=O)[C@H](C(C)C)N(C)C(=O)[C@@H]1CCN(C(=O)C#CC(C)(C)N3CCC3)C1)C(=O)N1CCC[C@H](N1)C(=O)OCC(C)(C)C2 [Example A476] | 1000 to 10000 nM | 100 to 1000 nM | 10 to 100 nM | 1000 to 10000 nM | 10 to 100 nM | 1000 to 10000 nM | 1000 to 10000 nM | 1000 to 10000 nM | < 5000 nM | < 10 nM | –
CCn1c(-c2cccnc2[C@H](C)OC)c2c3cc(ccc31)-c1cccc(c1)C[C@H](NC(=O)[C@H](C(C)C)N(C)C(=O)[C@H]1CCN(C(=O)C#CC3CC(F)(F)CN3C)C1)C(=O)N1CCC[C@H](N1)C(=O)OCC(C)(C)C2 (stereo partly shown) [Example A526] | 1000 to 10000 nM | 1000 to 10000 nM | 10 to 100 nM | > 10000 nM | 10 to 100 nM | > 10000 nM | 1000 to 10000 nM | 1000 to 10000 nM | < 5000 nM | < 10 nM | –
C=CC(=O)N1CCO[C@@H]2CCN(C(=O)N(C)[C@H](C(=O)N[C@H]3Cc4nc(cs4)-c4ccc5c(c4)c(c(-c4cccnc4[C@H](C)OC)n5CC)CC(C)(C)COC(=O)C4CCCN(N4)C3=O)C(C)C)CC21 (stereo partly shown) [Example A596] | – | – | 10 to 100 nM | – | – | – | – | – | < 5000 nM | < 10 nM | IC50 (NRAS Q61R): 10 to 100 nM; IC50 (NRAS Q61K): 10 to 100 nM
C=CC(=O)N1CCO[C@H]2CN(C(=O)N(C)[C@H](C(=O)N[C@H]3Cc4cccc(n4)-c4ccc5c(c4)c(c(-c4cccnc4[C@H](C)OC)n5CC)CC(C)(C)COC(=O)C4CCCN(N4)C3=O)C(C)C)C[C@H]21 (stereo partly shown) [Example A597] | – | – | 10 to 100 nM | – | – | – | – | – | < 5000 nM | < 10 nM | IC50 (NRAS Q61R): 100 to 1000 nM; IC50 (NRAS Q61K): 100 to 1000 nM
